pIC50: −log10 of the molar value.
System: 354836-022-R-J1-PDC multicell spheroid viability
Test: Anticancer human tumor 354836-022-R-J1-PDC patient-derived head and neck squamous cell carcinoma cell line growth inhibition [PI3K]
Details: for pIC50: curve of first compound; for viability, T/C: stronger effect = lower value
How it was run: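 Spheroid viability read-out. Co-cultures contained the tumor line plus HUVEC and human MSCs. Each agent was paired with a PI3K inhibitor (inavolisib, alpelisib, duvelisib, copanlisib) across half-log dilutions starting at clinical Cmax, or at 10 microM when Cmax was unknown.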

[1] = second compound 0.0316 µM, first compound 0.0316 µM
[2] = second compound 0.0316 µM, first compound 0.1 µM
[3] = second compound 0.0316 µM, first compound 0.316 µM
[4] = second compound 0.0316 µM, first compound 1 µM
[5] = second compound 0.0316 µM, first compound 3.16 µM
[6] = second compound 0.0316 µM, first compound 10 µM
[7] = second compound 0.1 µM, first compound 0.0316 µM
[8] = second compound 0.1 µM, first compound 0.1 µM
[9] = second compound 0.1 µM, first compound 0.316 µM
[10] = second compound 0.1 µM, first compound 1 µM
[11] = second compound 0.1 µM, first compound 3.16 µM
[12] = second compound 0.1 µM, first compound 10 µM
[13] = second compound 0.316 µM, first compound 0.0316 µM
[14] = second compound 0.316 µM, first compound 0.1 µM
[15] = second compound 0.316 µM, first compound 0.316 µM
[16] = second compound 0.316 µM, first compound 1 µM
[17] = second compound 0.316 µM, first compound 3.16 µM
[18] = second compound 0.316 µM, first compound 10 µM
[19] = second compound 1 µM, first compound 0.0316 µM
[20] = second compound 1 µM, first compound 0.1 µM
[21] = second compound 1 µM, first compound 0.316 µM
[22] = second compound 1 µM, first compound 1 µM
[23] = second compound 1 µM, first compound 3.16 µM
[24] = second compound 1 µM, first compound 10 µM
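Further: spheroids exposed to agents for seven days before the viability read.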

CC(C)NCC(C(=O)N1CCN(c2ncnc3c2C(C)CC3O)CC1)c1ccc(Cl)cc1 (stereo not given) + Cc1nc(NC(=O)N2CCCC2C(N)=O)sc1-c1ccnc(C(C)(C)C(F)(F)F)c1
pIC50 (second compound 0.0316 µM): 6.62 | pIC50 (second compound 0.1 µM): 6.66 | pIC50 (second compound 0.316 µM): 6.65 | pIC50 (second compound 1 µM): 6.40 | pIC50 (second compound 3.16 µM): 6.94 | pIC50 (second compound 10 µM): > 7.50 | viability, T/C [1]: 96% | viability, T/C [2]: 64.5% | viability, T/C [3]: 50.7% | viability, T/C [4]: 22.4% | viability, T/C [5]: 18.8% | viability, T/C [6]: 12.2% | viability, T/C [7]: 78.9% | viability, T/C [8]: 57.3% | viability, T/C [9]: 51.4% | viability, T/C [10]: 24% | viability, T/C [11]: 17.5% | viability, T/C [12]: 10.2% | viability, T/C [13]: 79.3% | viability, T/C [14]: 65% | viability, T/C [15]: 42% | viability, T/C [16]: 29% | viability, T/C [17]: 16.8% | viability, T/C [18]: 6.96% | viability, T/C [19]: 59.7% | viability, T/C [20]: 73.8% | viability, T/C [21]: 54.1% | viability, T/C [22]: 27.9% | viability, T/C [23]: 18.5% | viability, T/C [24]: 6.41% | viability, T/C (second compound 3.16 µM, first compound 0.0316 µM): 53.7% | viability, T/C (second compound 3.16 µM, first compound 0.1 µM): 53.2% | viability, T/C (second compound 3.16 µM, first compound 0.316 µM): 40.2% | viability, T/C (second compound 3.16 µM, first compound 1 µM): 22.7% | viability, T/C (second compound 3.16 µM, first compound 3.16 µM): 13.2% | viability, T/C (second compound 3.16 µM, first compound 10 µM): 6.1% | viability, T/C (second compound 10 µM, first compound 0.0316 µM): 34.4% | viability, T/C (second compound 10 µM, first compound 0.1 µM): 32% | viability, T/C (second compound 10 µM, first compound 0.316 µM): 24.8% | viability, T/C (second compound 10 µM, first compound 1 µM): 13.5% | viability, T/C (second compound 10 µM, first compound 3.16 µM): 8.39% | viability, T/C (second compound 10 µM, first compound 10 µM): 4.1%

CC(C)NCC(C(=O)N1CCN(c2ncnc3c2C(C)CC3O)CC1)c1ccc(Cl)cc1 (stereo not given)
viability, T/C (compound 0.0316 µM): 96.5% [middle of 4 runs] | viability, T/C (compound 0.1 µM): 71% [middle of 4 runs] | viability, T/C (compound 0.316 µM): 54.1% [middle of 4 runs] | viability, T/C (compound 1 µM): 24.7% [middle of 4 runs] | viability, T/C (compound 3.16 µM): 18% [middle of 4 runs] | viability, T/C (compound 10 µM): 14.2% [middle of 4 runs] | IC50 (curve of compound): 319 nM [middle of 4 runs]

CC1(C)CCC(CN2CCN(c3ccc(C(=O)NS(=O)(=O)c4ccc(NCC5CCOCC5)c([N+](=O)[O-])c4)c(Oc4cnc5[nH]ccc5c4)c3)CC2)=C(c2ccc(Cl)cc2)C1
viability, T/C (compound 0.0316 µM): 104% [middle of 4 runs] | viability, T/C (compound 0.316 µM): 102% [middle of 4 runs] | viability, T/C (compound 1 µM): 82.2% [middle of 4 runs] | viability, T/C (compound 3.16 µM): 72.4% [middle of 4 runs]

C=CC(=O)N1CCN(c2nc(=O)n(-c3c(C)ccnc3C(C)C)c3nc(-c4c(O)cccc4F)c(F)cc23)C(C)C1 (stereo not given) + CC(Nc1ccc2c(c1)OCCn1cc(N3C(=O)OCC3C(F)F)nc1-2)C(N)=O
pIC50 (second compound 0.00316 µM): < 5.00 | pIC50 (second compound 0.01 µM): < 5.00 | pIC50 (second compound 0.0316 µM): < 5.00 | pIC50 (second compound 0.1 µM): < 5.00 | pIC50 (second compound 0.316 µM): < 5.00 | pIC50 (second compound 1 µM): < 5.00 | viability, T/C (second compound 0.00316 µM, first compound 0.0316 µM): 100% | viability, T/C (second compound 0.00316 µM, first compound 0.1 µM): 81.7% | viability, T/C (second compound 0.00316 µM, first compound 0.316 µM): 98.7% | viability, T/C (second compound 0.00316 µM, first compound 1 µM): 94.5% | viability, T/C (second compound 0.00316 µM, first compound 3.16 µM): 106% | viability, T/C (second compound 0.00316 µM, first compound 10 µM): 113% | viability, T/C (second compound 0.01 µM, first compound 0.0316 µM): 101% | viability, T/C (second compound 0.01 µM, first compound 0.1 µM): 91.8% | viability, T/C (second compound 0.01 µM, first compound 0.316 µM): 93.1% | viability, T/C (second compound 0.01 µM, first compound 1 µM): 95.3% | viability, T/C (second compound 0.01 µM, first compound 3.16 µM): 103% | viability, T/C (second compound 0.01 µM, first compound 10 µM): 91% | viability, T/C [1]: 95.7% | viability, T/C [2]: 112% | viability, T/C [3]: 86.9% | viability, T/C [4]: 111% | viability, T/C [5]: 115% | viability, T/C [6]: 92.2% | viability, T/C [7]: 77.9% | viability, T/C [8]: 94.3% | viability, T/C [9]: 95.2% | viability, T/C [10]: 124% | viability, T/C [11]: 88.5% | viability, T/C [12]: 89.7% | viability, T/C [13]: 68.2% | viability, T/C [14]: 75.9% | viability, T/C [15]: 81.5% | viability, T/C [16]: 68.1% | viability, T/C [17]: 87.7% | viability, T/C [18]: 70.6% | viability, T/C [19]: 63.9% | viability, T/C [20]: 63.2% | viability, T/C [21]: 65.1% | viability, T/C [22]: 74% | viability, T/C [23]: 68.3% | viability, T/C [24]: 55.6%
